Test results reported in US20090041617A1, “PURIFIED HYDROGEN PEROXIDE GAS MICROBIAL CONTROL METHODS AND DEVICES” (priority 2007, published 2009).
Where two headings read alike, the source gives them in different places.

Key:
A. niger (ATCC 16404) = settings: for Average CFU/Test carrier (Survivors in the test) / Percent Reduction Compared to Corresponding Natural Die-off / Percent Reduction as Compared to Time Zero Control: PHPG 0.005-0.01 ppm, 35%-40% relative humidity
Source text: (§1) The device was subjected to tests designed and implemented by two accredited laboratories to: (a) measure the output of Purified Hydrogen Peroxide Gas (PHPG); (b) confirm that the output was substantially free of ozone; (c) confirm that the output was substantially free of VOC's; (d) measure the efficacy of PHPG against the Feline Calicivirus (an EPA-approved substitute for noroviruses), Methicillin Resistant Staphylococcus Aureous (MRSA), Vancomyacin Resistant Enterococcus Faecalis (VRE), Clostridium Difficile (C-Diff), Geobacillus Stearothermophilus, (a stable bacteria used by the insurance industry to verify successful microbial remediation), and Aspergillus Niger (a common fungus); and (e) test at a variety of ambient relative humidities including 35% to 40% at 70 to 72 degrees Fahrenheit, 56% to 59% at 81 to 85 degrees Fahrenheit, and 98% at 78 degrees Fahrenheit.
(§2) In quantitative microbial testing at ATS labs in Eagan, Minn. the following data was collected.

MRSA (ATCC 33592) = settings: for Average CFU/Test carrier (Survivors in the test) / Percent Reduction Compared to Corresponding Natural Die-off / Percent Reduction as Compared to Time Zero Control: PHPG 0.005-0.01 ppm, 35%-40% relative humidity
Source text: as §1, §2

VRE (ATCC 51575) = settings: for Average CFU/Test carrier (Survivors in the test) / Percent Reduction Compared to Corresponding Natural Die-off / Percent Reduction as Compared to Time Zero Control: PHPG 0.005-0.01 ppm, 35%-40% relative humidity
Source text: as §1, §2

[1] = system: C. difficile (ATCC 700792); settings: for Average CFU/Test carrier (Survivors in the test) / Percent Reduction Compared to Corresponding Natural Die-off / Percent Reduction as Compared to Time Zero Control: PHPG 0.005-0.01 ppm, 35%-40% relative humidity
Source text: as §1, §2

[2] = system: Feline Calicivirus (Norovirus substitute); settings: for Average Virus Infectivity Observed After Exposure / Percent Reduction Compared to Corresponding Natural Die-off / Percent Reduction as Compared to Time Zero Virus Control: PHPG 0.005-0.01 ppm, 35%-40% relative humidity
Source text: as §1, §2

[3] = system: Geobacillus Stearothermophilus
Source text: as §1

[4] = PHPG about 0.005 ppm to about 0.10 ppm in the environment

## OO [PHPG, Purified Hydrogen Peroxide Gas]
A. niger (ATCC 16404); 2 hours
  Average CFU/Test carrier (Survivors in the test): 1.9 × 10^5 CFU/ CFU/Carrier
  Percent Reduction Compared to Corresponding Natural Die-off: 13.6%
  Percent Reduction as Compared to Time Zero Control: 19.1%
A. niger (ATCC 16404); 6 hours
  Average CFU/Test carrier (Survivors in the test): 4.67 × 10^4 CFU/ CFU/Carrier
  Percent Reduction Compared to Corresponding Natural Die-off: 81.3%
  Percent Reduction as Compared to Time Zero Control: 80.1%
A. niger (ATCC 16404); 24 hours
  Average CFU/Test carrier (Survivors in the test): 1.2 × 10^4 CFU/ CFU/Carrier
  Percent Reduction Compared to Corresponding Natural Die-off: 90.8%
  Percent Reduction as Compared to Time Zero Control: 94.9%
A. niger (ATCC 16404); [4]
  efficacy in words: proven effective
MRSA (ATCC 33592); 2 hours
  Average CFU/Test carrier (Survivors in the test): <1 (no survivors) CFU/Test carrier
  Percent Reduction Compared to Corresponding Natural Die-off: >99.9999%
  Percent Reduction as Compared to Time Zero Control: >99.9999%
MRSA (ATCC 33592); 6 hours
  Average CFU/Test carrier (Survivors in the test): <1 (no survivors) CFU/Test carrier
  Percent Reduction Compared to Corresponding Natural Die-off: >99.9999%
  Percent Reduction as Compared to Time Zero Control: >99.9999%
MRSA (ATCC 33592); 24 hours
  Average CFU/Test carrier (Survivors in the test): <1 (no survivors) CFU/Test carrier
  Percent Reduction Compared to Corresponding Natural Die-off: >99.9999%
  Percent Reduction as Compared to Time Zero Control: >99.9999%
MRSA (ATCC 33592); [4]
  efficacy in words: proven effective
VRE (ATCC 51575); 2 hours
  Average CFU/Test carrier (Survivors in the test): <1 (no survivors) CFU/Test carrier
  Percent Reduction Compared to Corresponding Natural Die-off: >99.999%
  Percent Reduction as Compared to Time Zero Control: >99.9999%
VRE (ATCC 51575); 6 hours
  Average CFU/Test carrier (Survivors in the test): <1 (no survivors) CFU/Test carrier
  Percent Reduction Compared to Corresponding Natural Die-off: >99.99%
  Percent Reduction as Compared to Time Zero Control: >99.9999%
VRE (ATCC 51575); 24 hours
  Average CFU/Test carrier (Survivors in the test): <1 (no survivors) CFU/Test carrier
  Percent Reduction Compared to Corresponding Natural Die-off: >99.9%
  Percent Reduction as Compared to Time Zero Control: >99.9999%
VRE (ATCC 51575); [4]
  efficacy in words: proven effective
[1]; 2 hours
  Average CFU/Test carrier (Survivors in the test): 2.18 × 10^5 CFU/ CFU/Carrier
  Percent Reduction Compared to Corresponding Natural Die-off: 9.2%
  Percent Reduction as Compared to Time Zero Control: 27.3%
[1]; 6 hours
  Average CFU/Test carrier (Survivors in the test): 1.1 × 10^5 CFU/ CFU/Carrier
  Percent Reduction Compared to Corresponding Natural Die-off: 60.6%
  Percent Reduction as Compared to Time Zero Control: 63.3%
[1]; 24 hours
  Average CFU/Test carrier (Survivors in the test): 7.3 × 10^4 CFU/ CFU/Carrier
  Percent Reduction Compared to Corresponding Natural Die-off: 70.4%
  Percent Reduction as Compared to Time Zero Control: 75.7%
[1]; [4]
  efficacy in words: proven effective
[2]; [4]
  efficacy in words: proven effective
[2]; exposure 2 hrs
  Average Virus Infectivity Observed After Exposure: 4.3 log10
  Percent Reduction Compared to Corresponding Natural Die-off: 96.8%
  Percent Reduction as Compared to Time Zero Virus Control: 99.5%
[2]; exposure 6 hrs
  Average Virus Infectivity Observed After Exposure: 2.3 log10
  Percent Reduction Compared to Corresponding Natural Die-off: 99.8%
  Percent Reduction as Compared to Time Zero Virus Control: 99.995%
[2]; exposure 24 hrs
  Percent Reduction Compared to Corresponding Natural Die-off: 99.8%
  Percent Reduction as Compared to Time Zero Virus Control: ≧99.9999%
[2]; exposure 24 hrs, virus detected in only one replicate
  Average Virus Infectivity Observed After Exposure: ≦0.6 log10
[3]; [4]
  efficacy in words: proven effective
[3]; several tests, all cases, within a matter of hours
  reduction of the bacteria on inoculated chips: significant reduction
